Measurements reported in US20260224486A1, “DIANHYDROHEXITOL BASED IONIZABLE LIPIDS FOR NUCLEIC ACID DELIVERY” (SANOFI PASTEUR INC., priority 2023, published 2026).

tested on: BALB/cJ mice; experiment: Delivery of hEPO mRNA by intramuscular administration of LNPs; serum hEPO by ELISA; type: in vivo, Mouse; settings: Table 2, isosorbide-derived lipids; mouse serum 6 hours post single IM injection of 0.1 μg hEPO mRNA LNP
Method: In summary, lipid screening studies were conducted with female BALB/cJ mice 6-8 weeks of age. Mice were dosed with 0.1 μg in 30 μL of LNPs by a single intramuscular (IM) injection into the gastrocnemius leg muscle. Blood samples were taken 6 and 24 hours post injection and hEPO levels were measured in the blood serum of the mice using an ELISA assay according to the manufacture's protocol.
Treatment Regimen: On Day 1, animals from Groups 1-33 were dosed via intramuscular injection while under light isoflurane anesthesia according to the study design table above. Animals in Groups 1-33 were injected with EPO mRNA LNPs in the right leg only. Groups 1 and 17 animals received MC3 control.
Interim Sample Collections: Interim whole blood (^~50 μL) was collected by tail snip or saphenous vein at 6 and 24 hours post dose administration (±5%). Blood samples were collected into serum separator tubes, allowed to clot at room temperature for at least 10 minutes, centrifuged at ambient temperature at minimum 1000 g for 10 minutes and the serum was extracted. All serum samples were stored at nominally −70° C. until analysis hEPO by the Testing Facility. The results of the EPO analysis were included in the Data Submission.
Terminal Blood Collections: Whole blood was collected via cardiac puncture into serum separator tube, allowed to clot at room temperature for at least 10 minutes, centrifuged at ambient temperature at minimum 1000 g for 10 minutes and the serum was extracted. Serum samples were stored at nominally −70° C. until analyzed for hEPO by the Test Facility.
ELISA Assay: Human erythropoietin (hEPO) levels in sera samples were determined by ELISA kit (R&D systems, Cat #DEP-00) according to the manufactory instruction and the results were included in the Data Submission. The “shaker” protocol was used. The serum samples were diluted between 1:40 and 1:100.

SMILES	hEPO 6 Hr (ng/ml) Mean
CCCCC/C=C\C/C=C\CCCCCCCCC(CCCCCCCC/C=C\C/C=C\CCCCC)OC(=O)CCCN(C)C [MC3, reference compound]	7.1 ng/mL

same assay, conditions: Table 3, isomannide-derived lipids; mouse serum 6 hours post single IM injection of 0.1 μg hEPO mRNA LNP

SMILES	hEPO 6 Hr (ng/mL) Mean
CCCCC/C=C\C/C=C\CCCCCCCCC(CCCCCCCC/C=C\C/C=C\CCCCC)OC(=O)CCCN(C)C [MC3, reference compound]	5.6 ng/mL

same assay, conditions: Table 4, further lipids; mouse serum 6 hours post IM injection of hEPO mRNA LNP as in example 3

SMILES	hEPO 6 Hr (ng/ml) Mean
CCCCCCCCCCC(O)CN(CCCCC(=O)O[C@@H]1CO[C@H]2[C@@H]1OC[C@H]2OC(=O)CCCN(CC(O)CCCCCCCCCC)CC(O)CCCCCCCCCC)CC(O)CCCCCCCCCC (stereo partly shown) [Compound 56]	51.9 ng/mL
CCCCCCCCCCC(O)CN(CCCC(=O)S[C@H]1CO[C@H]2[C@@H]1OC[C@@H]2SC(=O)CCCN(CC(O)CCCCCCCCCC)CC(O)CCCCCCCCCC)CC(O)CCCCCCCCCC (stereo partly shown) [Compound 44]	2.0 ng/mL
CCCCCCCCCCCCC(O)CN(CCCC(=O)S[C@H]1CO[C@H]2[C@@H]1OC[C@@H]2SC(=O)CCCN(CC(O)CCCCCCCCCCCC)CC(O)CCCCCCCCCCCC)CC(O)CCCCCCCCCCCC (stereo partly shown) [Compound 82]	3.1 ng/mL
CCCCCCCCC(O)CN(CCCCC(=O)N[C@H]1CO[C@H]2[C@@H]1OC[C@@H]2NC(=O)CCCCN(CC(O)CCCCCCCC)CC(O)CCCCCCCC)CC(O)CCCCCCCC (stereo partly shown) [Compound 70]	47.6 ng/mL
CCCCCC/C=C\COC(=O)CCCCCCCN(CCCCCCCC(=O)OC/C=C\CCCCCC)CCCC(=O)N[C@H]1CO[C@H]2[C@@H]1OC[C@@H]2NC(=O)CCCN(CCCCCCCC(=O)OC/C=C\CCCCCC)CCCCCCCC(=O)OC/C=C\CCCCCC [Compound 75]	2.1 ng/mL
CCCCCCCCCCC(O)CN(CCCCC(=O)N[C@H]1CO[C@H]2[C@@H]1OC[C@@H]2NC(=O)CCCCN(CC(O)CCCCCCCCCC)CC(O)CCCCCCCCCC)CC(O)CCCCCCCCCC (stereo partly shown) [Compound 71]	72.0 ng/mL
CCCCCCCCCCC(O)CCN(CCCNC(=O)O[C@@H]1CO[C@H]2[C@@H]1OC[C@H]2OC(=O)NCCCN(CC(O)CCCCCCCCCC)CC(O)CCCCCCCCCC)C(O)CCCCCCCCCC (stereo partly shown) [Compound 48]	81.3 ng/mL
CCCCCCCCCCCOC(=O)CCCC(O)CN(CCCC(=O)N[C@H]1CO[C@H]2[C@@H]1OC[C@@H]2NC(=O)CCCN(CC(O)CCCCCC(=O)OC(CCCCCCCC)CCCCCCCC)CC(O)CCCC(=O)OCCCCCCCCCCC)CC(O)CCCCCC(=O)OC(CCCCCCCC)CCCCCCCC (stereo partly shown) [Compound 73]	23.4 ng/mL
CCCCCCCCCCC(O)CN(CCCSS[C@H]1CO[C@H]2[C@@H]1OC[C@@H]2SSCCCN(CC(O)CCCCCCCCCC)CC(O)CCCCCCCCCC)CC(O)CCCCCCCCCC (stereo partly shown) [Compound 45]	2.2 ng/mL
CCCCCCCCC(O)CN(CCCOC(=O)O[C@@H]1CO[C@H]2[C@@H]1OC[C@H]2OC(=O)OCCCN(CC(O)CCCCCCCC)CC(O)CCCCCCCC)CC(O)CCCCCCCC (stereo partly shown) [Compound 79]	21.2 ng/mL
CCCCCCCCCCCOC(=O)CCCC(O)CN(CCCC(=O)O[C@@H]1CO[C@H]2[C@@H]1OC[C@H]2OC(=O)CCCN(CC(O)CCCCCOC(=O)C(CCCCCCCC)CCCCCCCC)CC(O)CCCC(=O)OCCCCCCCCCCC)CC(O)CCCCCOC(=O)C(CCCCCCCC)CCCCCCCC (stereo partly shown) [Compound 12]	34.4 ng/mL
CCCCCCCCCCCCC(O)CN(CCCCC(=O)SC1CO[C@@H]2C(SC(=O)CCCCN(CC(O)CCCCCCCCCCCC)CC(O)CCCCCCCCCCCC)CO[C@H]12)CC(O)CCCCCCCCCCCC (stereo partly shown) [Compound 83]	8.0 ng/mL
CCCCCC/C=C\COC(=O)CCCCCCCN(CCCCCCCC(=O)OC/C=C\CCCCCC)CCCCSC(=O)N[C@@H]1CO[C@H]2[C@@H]1OC[C@H]2NC(=O)SCCCCN(CCCCCCCC(=O)OC/C=C\CCCCCC)CCCCCCCC(=O)OC/C=C\CCCCCC [Compound 85]	23.8 ng/mL
CCCCCCCCCCC(O)CN(CCCS[C@H]1CO[C@H]2[C@@H]1OC[C@@H]2SCCCN(CC(O)CCCCCCCCCC)CC(O)CCCCCCCCCC)CC(O)CCCCCCCCCC (stereo partly shown) [Compound 81]	2.3 ng/mL
CCCCCCCCCCCOC(=O)CCCCCN(CCCCCCCC(=O)OC(CCCCCCCC)CCCCCCCC)CCCC(=O)N[C@H]1CO[C@H]2[C@@H]1OC[C@@H]2NC(=O)CCCN(CCCCCCCC(=O)OC(CCCCCCCC)CCCCCCCC)CCCCCC(=O)OCCCCCCCCCCC [Compound 72]	6.2 ng/mL
CCCCCCCCCCC(O)CN(CCCCCC(=O)O[C@@H]1CO[C@H]2[C@@H]1OC[C@@H]2OC(=O)CCCCN(CC(O)CCCCCCCCCC)CC(O)CCCCCCCCCC)CC(O)CCCCCCCCCC (stereo partly shown) [Compound 67]	34.4 ng/mL
CCCCCCCCCCC(O)CN(CCCCS[C@H]1CO[C@H]2[C@@H]1OC[C@@H]2SCCCCN(CC(O)CCCCCCCCCC)CC(O)CCCCCCCCCC)CC(O)CCCCCCCCCC (stereo partly shown) [Compound 46]	2.1 ng/mL
CCCCCCCCCCC(O)CN(CCCCC(=O)S[C@H]1CO[C@H]2[C@@H]1OC[C@@H]2SC(=O)CCCCN(CC(O)CCCCCCCCCC)CC(O)CCCCCCCCCC)CC(O)CCCCCCCCCC (stereo partly shown) [Compound 80]	0.9 ng/mL
CCCCCCCCCCCOC(=O)CCCC(O)CN(CCCCC(=O)O[C@@H]1CO[C@H]2[C@@H]1OC[C@@H]2OC(=O)CCCN(CC(O)CCCCCC(=O)OC(CCCCCCCC)CCCCCCCC)CC(O)CCCC(=O)OCCCCCCCCCCC)CC(O)CCCCCC(=O)OC(CCCCCCCC)CCCCCCCC (stereo partly shown) [Compound 66]	23.2 ng/mL
CCCCCC/C=C\COC(=O)CCCCCC(O)CN(CCCC(=O)N[C@H]1CO[C@H]2[C@@H]1OC[C@@H]2NC(=O)CCCN(CC(O)CCCCCC(=O)OC/C=C\CCCCCC)CC(O)CCCCCC(=O)OC/C=C\CCCCCC)CC(O)CCCCCC(=O)OC/C=C\CCCCCC (stereo partly shown) [Compound 74]	2.1 ng/mL
CCCCCCCCCCCOC(=O)CCCC(O)CN(CCCC(=O)O[C@H]1CO[C@H]2[C@@H]1OC[C@H]2OC(=O)CCCN(CC(O)CCCCCOC(=O)C(CCCCCCCC)CCCCCCCC)CC(O)CCCC(=O)OCCCCCCCCCCC)CC(O)CCCCCOC(=O)C(CCCCCCCC)CCCCCCCC (stereo partly shown) [Compound 64]	36.2 ng/mL
CCCCCCCCCCCOC(=O)CCCCCN(CCCCCCCC(=O)OC(CCCCCCCC)CCCCCCCC)CCCCSC(=O)N[C@H]1CO[C@H]2[C@@H]1OC[C@@H]2NC(=O)SCCCCN(CCCCCCCC(=O)OC(CCCCCCCC)CCCCCCCC)CCCCCC(=O)OCCCCCCCCCCC (stereo in doubt) [Compound 84]	22.1 ng/mL
CCCCCCCCCCCCCCC(O)CN(CCCC(=O)O[C@@H]1CO[C@H]2[C@@H]1OC[C@@H]2OC(=O)CCCCN(CC(O)CCCCCCCCCC)CC(O)CCCCCCCCCC)CC(O)CCCCCCCCCCCCCC (stereo partly shown) [Compound 63]	60.5 ng/mL

same assay, conditions: Table 5, comparative ether compounds; mouse serum 6 hours post IM injection of hEPO mRNA LNP as in example 3

SMILES	hEPO 6 Hr (ng/ml) Mean
CCCCCCCCC(O)CN(CCCO[C@@H]1CO[C@H]2[C@@H]1OC[C@H]2OCCCN(CC(O)CCCCCCCC)CC(O)CCCCCCCC)CC(O)CCCCCCCC (stereo partly shown) [reference compound]	11.3 ng/mL
CCCCCCCCCCCCC(O)CN(CCCO[C@@H]1CO[C@H]2[C@@H]1OC[C@H]2OCCCN(CC(O)CCCCCCCCCCCC)CC(O)CCCCCCCCCCCC)CC(O)CCCCCCCCCCCC (stereo partly shown) [reference compound]	13.9 ng/mL
CCCCCCCCCCC(O)CN(CCCO[C@@H]1CO[C@H]2[C@@H]1OC[C@H]2OCCCN(CC(O)CCCCCCCCCC)CC(O)CCCCCCCCCC)CC(O)CCCCCCCCCC (stereo partly shown) [reference compound]	33.8 ng/mL
